Values after ≈ are worked out from the molar mass of the structure shown. Like-named read-outs stand apart in the source and are kept apart here.
Experiments:
[1] = 15° C.
Experimental: The sample in each example was scanned with UV spectroscopy in the wavelength range of 190-900 nm. The maximum absorbance was set to 2. All the samples to be determined have the same absorption peak at 304 nm. Although there are other absorption peaks in the range of 205-190 nm, the peak shapes are slightly different and the maximum absorption wavelengths thereof are different. Therefore, the fixed wavelength was determined to be 304 nm in the concentration versus absorbance determination.
Therefore, this compound was chosen to plot the concentration versus absorbance standard curve.
To a 100 mL volumetric flask were added the sample in Example 7 (279.26 mg) and distilled water. The volume was determined at 100 ml with distilled water. The concentration of the solution is 2.793 mg/mL. To a 50 mL volumetric flask was added 1 mL, 2 mL, 3 mL and 5 mL of the above solution, respectively. The volume was determined at 50 ml with distilled water. The concentrations of these solutions are 0.056 mg/mL, 0.112 mg/mL, 0.167 mg/mL and 0.279 mg/mL, respectively.
A small amount of the sample was used to prepare a 5 mL saturated solution. The solution was kept in a constant temperature water bath for 1 hour at 25° C. The supernatant was sampled and diluted to appropriate times according to the range of the standard curve. The concentration was determined by ultraviolet spectrophotometry, and the determined reading was multiplied by the dilution times to obtain the solubility of the sample to be determined.

[2] = Stability of aqueous solution at room temperature; assay type: physicochemical; settings: 17 mg dissolved in 10 mL of deionized water, kept at room temperature for 12 hours
Experimental: 17 mg of 3-(4-amino-1-oxo-1,3-dihydro-isoindol-2-yl)piperidine-2,6-dione bisulfate tetrahydrate (equivalent to 10 mg of 3-(4-amino-1-oxo-1,3-dihydro-isoindol-2-yl)piperidine-2,6-dione) was dissolved in 10 mL of deionized water and kept at room temperature for 12 hours. The content is higher than 98% of labeled amount.

[3] = water, 15 °C, thermodynamic from solid

In the case of `Nc1cccc2c1CN(C1CCC(=O)NC1=O)C2=O.O=[N+]([O-])O` (stereo not drawn) [Example 10], the Water-solubility [1] is reported as 3.68 mg/mL.

With `Cl.Nc1cccc2c1CN(C1CCC(=O)NC1=O)C2=O` (stereo not drawn) [Example 11] the Water-solubility [1] was 1.23 mg/mL.

With `Nc1cccc2c1CN(C1CCC(=O)NC1=O)C2=O` (stereo not drawn) [Compound (II), in which Y represents H, 3-(4-amino-1-oxo-1,3-dihydro-isoindol-2-yl)piperidine-2,6-dione] the solubility (physchem; [3]) was 0.29 mg/mL (≈ 1120 µM).

In the case of `Br.Nc1cccc2c1CN(C1CCC(=O)NC1=O)C2=O` (stereo not drawn) [Example 15], the Water-solubility [1] is reported as 5.5 mg/mL.

Compound `Nc1cccc2c1CN(C1CCC(=O)NC1=O)C2=O.O=S(=O)(O)c1cccc2ccccc12` (stereo not drawn) [Example 4] has a solubility ([1]; in water) of 5.60 mg/mL.

With `Nc1cccc2c1CN(C1CCC(=O)NC1=O)C2=O.O.O.O.O.O=S(=O)(O)O` (stereo not drawn) [Example 7, 3-(4-amino-1-oxo-1,3-dihydro-isoindol-2-yl)piperidine-2,6-dione bisulfate tetrahydrate] the “content (of labeled amount)” value [2] was “higher than 98 % of labeled amount”, the solubility at 1 h (physchem; 15 °C, water, thermodynamic from solid) was greater than 1000 mg/mL and the solubility (physchem; water, thermodynamic from solid) was greater than 1000 mg/mL.

`Nc1cccc2c1CN(C1CCC(=O)NC1=O)C2=O` (stereo not drawn) [Example 12, 3-(4-amino-1-oxo-1,3-dihydro-isoindol-2-yl)piperidine-2,6-dione] gave a solubility at 1 h (physchem; [3]) of 0.57 mg/mL (≈ 2200 µM).
